In publication PMC6783499, “Heteroglycoclusters With Dual Nanomolar Affinities for the Lectins LecA and LecB From Pseudomonas aeruginosa” (Frontiers in Chemistry, 2019):

Target: T1, LecB (Pseudomonas aeruginosa, UniProt Q9HYN5)
T1 construct: made in house; host or cells: Escherichia coli BL21(DE3)
Experiment: biochemical
Assay type: binding
Conditions: for n (stoichiometry, glycocluster molecules per lectin monomer): pH 7.5; for –ΔG / –ΔH / −TΔS: per mole of glycocluster
Experimental: The resulting hGCs were tested in solution with lectins by Isothermal Titration Calorimetry (Table 1) and their binding properties were compared with homoclusters 15–20 (Berthet et al., [2013]; Thomas et al., [2015b]) displaying either 4 and 16 βGal or αFuc units attached with an oxime or a triazole linker (Figure 3). […] Experiments were performed in direct injection mode (i.e., ligand in syringe and protein in cell) to minimize aggregation problems.
All chemical reagents were purchased from Aldrich (Saint Quentin Fallavier, France) or Acros (Noisy-Le-Grand, France). All protected amino acids and Fmoc-Gly-Sasrin® resin was obtained from Advanced ChemTech Europe (Brussels, Belgium). For peptides and glycopeptides, analytical RP-HPLC was performed on Waters system equipped with a Waters 2695 separations module and a Waters 2487 Dual Absorbance UV/Visible Detector. Analysis was carried out at 1.0 mL/min (EC 125/3 nucleosil 300-5 C18) with UV monitoring at 214 nm and 250 nm using a linear A–B gradient (buffer A: 0.09% CF3CO2H in water; buffer B: 0.09% CF3CO2H in 90% acetonitrile). Purifications were carried out at 22.0 mL/min (VP 250/21 nucleosil 100-7 C18) with UV monitoring at 214 nm and 250 nm using a linear A–B gradient. HRMS and ESI-MS and HRMS spectra of peptides and glycopeptides were measured on an Esquire 3000 spectrometer from Bruker. Lectins LecA and LecB were produced in recombinant form in Escherichia coli BL21(DE3) as described previously (Mitchell et al., [2005]; Blanchard et al., [2008]).
Other compounds were assayed with a VP-ITC isothermal titration calorimeter (Microcal). The experiments were carried out at 25°C. All glycocompounds and lectins LecB and LecA were dissolved in the same buffer composed of 20 mM Tris with 100 mM NaCl and 0.1 mM CaCl2 at pH 7.5. For PEAQ-ITC, the lectins were placed in the microcalorimeter cell (200 μL) at concentrations varying from 35 to 70 μM. […] For VP-ITC, the microcalorimeter cell (1.447 mL) contained the lectins with concentrations between 30 and 100 μM. A total of 30 injections of 10 μL were performed intervals of 5 min while stirring at 310 rpm with glycoclusters concentrations varying from […]. The experimental data were fitted to a theoretical titration curve using the Microcal PEAQ-ITC analysis software, with ΔH (enthalpy change), Ka (association constant), and N (number of binding sites per monomer) as adjustable parameters. Dissociation constant (Kd), free energy change (ΔG), and entropy contributions (TΔS) were derived from the previous ones. Two or three independent titrations were performed for each ligand tested.

[1] = ITC, 25°C, 20 mM Tris, 100 mM NaCl, 0.1 mM CaCl2, pH 7.5, ligand in syringe

T1 sequence (Q9HYN5 entry or part of it): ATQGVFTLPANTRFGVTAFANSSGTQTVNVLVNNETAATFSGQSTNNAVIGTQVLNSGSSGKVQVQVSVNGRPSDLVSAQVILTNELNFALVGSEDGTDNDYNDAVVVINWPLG

Compound	–ΔH (binding enthalpy) (ITC) [kJ/mol]	n (stoichiometry, glycocluster molecules per lectin monomer) (ITC, 25°C)	–ΔG (ITC, 25°C) [kJ/mol]	–ΔH (ITC, 25°C) [kJ/mol]	−TΔS (ITC, 25°C) [kJ/mol]	Kd [1] [nM]	α (relative potency compared to the monovalent compound) (relative to αFuc-OMe)	Kd (ITC, rounded value) [nM]	β (relative potency per sugar unit) (relative to αFuc-OMe)
C[C@@H]1NC(=O)[C@H](CCCCNC(=O)/C=N/O[C@@H]2O[C@@H](C)[C@@H](O)[C@@H](O)[C@@H]2O)NC(=O)CNC(=O)[C@@H]2CCCN2C(=O)[C@H](CCCCNC(=O)/C=N/O[C@@H]2O[C@@H](C)[C@@H](O)[C@@H](O)[C@@H]2O)NC(=O)[C@H](CCCCNC(=O)CO/N=C/C(=O)NCCCC[C@@H]2NC(=O)CNC(=O)[C@@H]3CCCN3C(=O)[C@H](CCCCNC(=O)/C=N/OCC(=O)NCCCC[C@@H]3NC(=O)[C@H](CCCCNC(=O)/C=N/O[C@@H]4O[C@@H](C)[C@@H](O)[C@@H](O)[C@@H]4O)NC(=O)CNC(=O)[C@@H]4CCCN4C(=O)[C@H](CCCCNC(=O)/C=N/O[C@@H]4O[C@@H](C)[C@@H](O)[C@@H](O)[C@@H]4O)NC(=O)[C@H](C)NC(=O)[C@H](CCCCNC(=O)/C=N/O[C@@H]4O[C@@H](C)[C@@H](O)[C@@H](O)[C@@H]4O)NC(=O)CNC(=O)[C@@H]4CCCN4C(=O)[C@H](CCCCNC(=O)/C=N/O[C@@H]4O[C@@H](C)[C@@H](O)[C@@H](O)[C@@H]4O)NC3=O)NC(=O)[C@H](CCCCN)NC(=O)[C@H](CCCCNC(=O)CO/N=C/C(=O)NCCCC[C@@H]3NC(=O)[C@H](CCCCn4cc(CO[C@H]5O[C@H](CO)[C@@H](O)[C@H](O)[C@@H]5O)nn4)NC(=O)CNC(=O)[C@@H]4CCCN4C(=O)[C@H](CCCCn4cc(CO[C@H]5O[C@H](CO)[C@@H](O)[C@H](O)[C@@H]5O)nn4)NC(=O)[C@H](C)NC(=O)[C@H](CCCCn4cc(CO[C@H]5O[C@H](CO)[C@@H](O)[C@H](O)[C@@H]5O)nn4)NC(=O)CNC(=O)[C@@H]4CCCN4C(=O)[C@H](CCCCn4cc(CO[C@H]5O[C@H](CO)[C@@H](O)[C@H](O)[C@@H]5O)nn4)NC3=O)NC(=O)CNC(=O)[C@@H]3CCCN3C(=O)[C@H](CCCCNC(=O)CO/N=C/C(=O)NCCCC[C@@H]3NC(=O)[C@H](CCCCn4cc(CO[C@H]5O[C@H](CO)[C@@H](O)[C@H](O)[C@@H]5O)nn4)NC(=O)CNC(=O)[C@@H]4CCCN4C(=O)[C@H](CCCCn4cc(CO[C@H]5O[C@H](CO)[C@@H](O)[C@H](O)[C@@H]5O)nn4)NC(=O)[C@H](C)NC(=O)[C@H](CCCCn4cc(CO[C@H]5O[C@H](CO)[C@@H](O)[C@H](O)[C@@H]5O)nn4)NC(=O)CNC(=O)[C@@H]4CCCN4C(=O)[C@H](CCCCn4cc(CO[C@H]5O[C@H](CO)[C@@H](O)[C@H](O)[C@@H]5O)nn4)NC3=O)NC(=O)[C@H](C)NC2=O)NC(=O)[C@H](CCCCNC(=O)/C=N/O[C@@H]2O[C@@H](C)[C@@H](O)[C@@H](O)[C@@H]2O)NC(=O)CNC(=O)[C@@H]2CCCN2C(=O)[C@H](CCCCNC(=O)/C=N/O[C@@H]2O[C@@H](C)[C@@H](O)[C@@H](O)[C@@H]2O)NC1=O [Compound 12]	212	0.08	40.4	211.0 ± 3	170.6	85 ± 16	5.1		
C[C@@H]1NC(=O)[C@H](CCCCn2cc(CO[C@@H]3O[C@@H](C)[C@@H](O)[C@@H](O)[C@@H]3O)nn2)NC(=O)CNC(=O)[C@@H]2CCCN2C(=O)[C@H](CCCCn2cc(CO[C@@H]3O[C@@H](C)[C@@H](O)[C@@H](O)[C@@H]3O)nn2)NC(=O)[C@H](CCCCN)NC(=O)[C@H](CCCCn2cc(CO[C@@H]3O[C@@H](C)[C@@H](O)[C@@H](O)[C@@H]3O)nn2)NC(=O)CNC(=O)[C@@H]2CCCN2C(=O)[C@H](CCCCn2cc(CO[C@@H]3O[C@@H](C)[C@@H](O)[C@@H](O)[C@@H]3O)nn2)NC1=O [Compound 16]		0.19	36.8	119.5 ± 1	82.8	367 ± 26	1.2	300	0.3
